A short description of data set [1]: Acute dermal toxicity / irritation in C57BL/6 mice. The class given is in vivo. As to the method: The acute dermal toxicity was conducted in Wistar rats to determine the dermal LD50 of MJ04 adhering to Organization for Economic Cooperation and Development (OECD) test guideline 402. A single dose of MJ04 covering 10% of body surface area was administered using a fixed dose procedure from 200 mg/kg to 2000 mg/kg with two animals per dose. The animals were monitored for mortality, morbidity, and clinical signs of toxicity at first 30 min, 6 h, 24 h, and thereafter for 14 days. Parameters like body weight, serum biochemistry (liver function test, kidney function test, and lipid Profile), and histopathology were analysed. The acute dermal irritation test was conducted in C57BL/6J mice at a single dose of 0.04 mg/kg and 0.08 mg/kg of MJ04.
Signal dose acute dermal toxicity tests were conducted in C57BL/6 mice. The tests included limited dosages of a single dose at 0.04 mg/kg and 0.08 mg/kg of MJ04. […] Digital photographs were taken at various time points (0 min, 5 min, 1 h, 4 h, 24 h, and 14 days) from representative areas using a Nikon digital camera (n = 5 mice).

In data set [2] the target is T1, IGF-1R (Homo sapiens, UniProt P08069).
T1 construct: purchased Promega Corporation V3581
In words: Cell-free kinase assay IGF-1R. Format: biochemical. As to the method: (§1) The cell-free kinase assays of small molecules were determined by following the manufacturer-recommended protocols. Different concentrations in triplicate were used to determine the IC50 value of the hit molecules (active molecules). For data analysis, GraphPad Prism V9.5 Software and a sigmoidal dose–response (variable slope) equation were used. Each value represents an average of three replicates per concentration.

In data set [3] the target is T2, GSK-3-β (Homo sapiens, UniProt P49841).
T2 construct: purchased Promega Corporation V1991
Nature of the data set: Cell-free kinase assay GSK-3-β. The class given is biochemical. The procedure:
as §1

Data set [4] is described as follows: Acute dermal toxicity (OECD 402) in Wistar rats.
The test system of data set [5] is IFN-γ-producing CD4+ T-cells. In words: T-cell differentiation of splenocytes, IFN-γ in CD4+ T-cells (Th1), flow cytometry. The settings on record: dose-dependent, 0.01-10 µM. The class given is cell-based, C57BL/6 mice.
Protocol: Splenocytes were isolated from the spleen of C57BL/6 mice. The whole spleen was crushed in a complete RPMI medium and passed through the 40 µm cell filter to obtain a single-cell suspension. The cell suspension was centrifuged at 300×g for 5 min, and the pellet was resuspended into the 1× RBC lysis buffer (Life Technology, Thermofisher, USA) for 10 min at room temperature to lyse the red blood cells. The sample was further centrifuged at the same speed and duration, and the pellet was resuspended in complete RPMI medium. Now, splenocytes were seeded into the 96-well plates (U bottom) at 3 × 10^5 cells/well density. […] For Th1 and Tc1 differentiation, IL-12 (5 ng/ml) was added and allowed to grow for four days.
Prior to harvesting, cells were further stimulated with PMA (50 ng/ml), ionomycin (1000 ng/ml), and glogi Stop (as per manufacturer recommendation) for 4 h. The plate was spun down at 2000 rpm for 10 min and washed once with FACS buffer (3% FBS, 1× PBS, and 200 mM EDTA). Cells were stained with anti-CD4-PerCP and anti-CD8-FITC antibodies (BD, Biosciences) in the dilution 1:400 by adding 100 µl/well and incubated at RT for 60 min. […] Cells were finally washed and resuspended into FACS buffer, and data was recorded into the BD accuri C6 flow cytometer, and data were analyzed by Flowjo.
For data set [6], the system named is human hair follicles. Nature of the data set: Human hair follicle organ culture ex-vivo. Conditions: 20 days culture, vs vehicle and untreated follicles. As to the method:
Hair follicles were collected from three single donors of androgenetic alopecia undergoing hair transplant surgery at the Department of Dermatology, All India Institute of Medical Sciences, New Delhi, India. All experimental procedures were approved by the Institutional Ethics Committee […] of AIIMS, New Delhi (IEC approval No: 550/01.09.2023). Donors were above 18 years of age. Isolated hair follicles were cultured as per the previously described method of Philpott et al.. Immediately after isolation, follicles were placed in 24 well plates under sterile conditions into ice-cold Williams’ medium E (Sigma) with the different concentrations of MJ04 for 20 days. Half media was replaced with fresh media every 3rd day for 20 days. Basal length, i.e., length on the day of starting culture and post treatment was measured. Photographs were taken with a Nikon digital camera.

Data set [7] concerns MCF-7. In words: MTT cell viability assay MCF-7. Format: cell-based, human. The settings on record: Homo sapiens, MCF7, 48 h. As to the method:
(§2) Cell viability was evaluated using an MTT colorimetric assay. Cells were seeded (10^5 cells/mL) in 96-well plates and allowed to grow overnight at 37 ℃ with 5% CO2 in a cell-culture incubator. On the following day, the cells were treated with small molecules at different concentrations (0.2–10 micro-molar) or vehicle (DMSO). Cells were then further incubated for 48 h.

In data set [8] the test system is A549. Nature of the data set: MTT cell viability assay A549. Format: cell-based, human. The settings on record: Homo sapiens, A549, 48 h. The procedure:
as §2

The target in data set [9] is T3, hERG channels (Homo sapiens, UniProt Q12809).
T3 construct: host or cells: HEK293
Nature of the data set: hERG channel assay, whole cell patch clamp. The class given is cell-based.

Data set [10] in a line: Body weight of athymic nude mice during topical treatment. Format: in vivo, athymic nude mice (NU/J Foxn1nu). The settings on record: individual mice. As to the method: . The groups are as follows: Group 1-Control (untreated), Group 2-Vehicle control, Group 3-tofacitinib citrate (0.8 mg/Kg), Group 4-tofacitinib citrate (0.08 mg/Kg), Group 5-MJ04 (0.08 mg/Kg), Group 6-MJ04 (0.04 mg/Kg), Group 7-MJ04 (0.016 mg/Kg), Group 8-baricitinib (0.1 mg/Kg), Group 9-baricitinib (0.04 mg/Kg), and Group 10-baricitinib (0.02 mg/Kg). At the end of the experiment, skin samples were collected and preserved in 10% neutral buffered formalin for tissue sectioning and staining using haematoxylin and eosin (H&E). […]

The structures appear in SMILES notation. “And” between values parts separate entries of the source, which are not always exact repeats. Equal values may be shown once.

T1 sequence (P08069 31-1367): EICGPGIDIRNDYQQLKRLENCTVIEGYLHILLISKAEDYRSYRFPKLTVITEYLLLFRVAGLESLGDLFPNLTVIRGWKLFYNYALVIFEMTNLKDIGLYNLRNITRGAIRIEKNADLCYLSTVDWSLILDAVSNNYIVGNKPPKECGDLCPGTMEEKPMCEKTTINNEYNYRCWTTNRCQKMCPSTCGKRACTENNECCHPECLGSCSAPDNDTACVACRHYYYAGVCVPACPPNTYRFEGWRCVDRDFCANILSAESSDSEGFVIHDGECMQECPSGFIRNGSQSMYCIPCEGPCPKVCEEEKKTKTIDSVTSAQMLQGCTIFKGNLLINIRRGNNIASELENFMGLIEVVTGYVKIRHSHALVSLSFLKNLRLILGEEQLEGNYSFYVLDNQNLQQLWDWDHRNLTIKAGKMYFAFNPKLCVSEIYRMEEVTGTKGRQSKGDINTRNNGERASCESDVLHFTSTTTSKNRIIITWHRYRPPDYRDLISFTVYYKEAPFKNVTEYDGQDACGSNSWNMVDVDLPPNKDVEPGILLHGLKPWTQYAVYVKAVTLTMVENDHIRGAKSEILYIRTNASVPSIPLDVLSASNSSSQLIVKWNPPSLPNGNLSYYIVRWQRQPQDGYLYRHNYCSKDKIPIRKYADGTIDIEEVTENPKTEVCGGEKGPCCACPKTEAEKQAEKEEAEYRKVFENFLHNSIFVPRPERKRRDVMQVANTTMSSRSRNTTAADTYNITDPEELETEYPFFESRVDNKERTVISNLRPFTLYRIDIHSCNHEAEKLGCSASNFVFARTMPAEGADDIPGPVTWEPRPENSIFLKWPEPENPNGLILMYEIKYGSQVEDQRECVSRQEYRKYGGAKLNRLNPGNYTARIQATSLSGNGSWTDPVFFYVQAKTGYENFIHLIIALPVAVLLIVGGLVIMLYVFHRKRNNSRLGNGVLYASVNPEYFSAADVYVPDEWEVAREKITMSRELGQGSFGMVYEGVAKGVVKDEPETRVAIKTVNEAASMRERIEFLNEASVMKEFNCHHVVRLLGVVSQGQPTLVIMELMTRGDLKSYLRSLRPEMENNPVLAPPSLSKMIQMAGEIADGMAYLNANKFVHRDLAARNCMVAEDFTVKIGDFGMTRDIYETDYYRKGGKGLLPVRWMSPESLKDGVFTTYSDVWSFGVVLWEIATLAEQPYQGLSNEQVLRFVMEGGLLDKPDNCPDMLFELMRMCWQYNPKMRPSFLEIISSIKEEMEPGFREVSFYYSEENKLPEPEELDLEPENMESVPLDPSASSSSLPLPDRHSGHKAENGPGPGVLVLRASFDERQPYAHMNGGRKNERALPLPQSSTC
T2 sequence (P49841 whole entry): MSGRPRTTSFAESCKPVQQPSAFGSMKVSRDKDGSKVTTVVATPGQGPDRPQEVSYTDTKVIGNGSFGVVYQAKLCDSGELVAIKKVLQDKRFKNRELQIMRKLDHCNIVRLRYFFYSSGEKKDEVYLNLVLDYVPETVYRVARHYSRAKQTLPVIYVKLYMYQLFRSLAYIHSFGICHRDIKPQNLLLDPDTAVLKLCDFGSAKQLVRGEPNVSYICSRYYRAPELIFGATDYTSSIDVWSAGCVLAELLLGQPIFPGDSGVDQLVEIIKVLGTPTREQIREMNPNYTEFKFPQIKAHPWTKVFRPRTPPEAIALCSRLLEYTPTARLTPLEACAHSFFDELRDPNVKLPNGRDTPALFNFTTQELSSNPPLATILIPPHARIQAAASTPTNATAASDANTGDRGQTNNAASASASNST
T3 sequence (Q12809 whole entry): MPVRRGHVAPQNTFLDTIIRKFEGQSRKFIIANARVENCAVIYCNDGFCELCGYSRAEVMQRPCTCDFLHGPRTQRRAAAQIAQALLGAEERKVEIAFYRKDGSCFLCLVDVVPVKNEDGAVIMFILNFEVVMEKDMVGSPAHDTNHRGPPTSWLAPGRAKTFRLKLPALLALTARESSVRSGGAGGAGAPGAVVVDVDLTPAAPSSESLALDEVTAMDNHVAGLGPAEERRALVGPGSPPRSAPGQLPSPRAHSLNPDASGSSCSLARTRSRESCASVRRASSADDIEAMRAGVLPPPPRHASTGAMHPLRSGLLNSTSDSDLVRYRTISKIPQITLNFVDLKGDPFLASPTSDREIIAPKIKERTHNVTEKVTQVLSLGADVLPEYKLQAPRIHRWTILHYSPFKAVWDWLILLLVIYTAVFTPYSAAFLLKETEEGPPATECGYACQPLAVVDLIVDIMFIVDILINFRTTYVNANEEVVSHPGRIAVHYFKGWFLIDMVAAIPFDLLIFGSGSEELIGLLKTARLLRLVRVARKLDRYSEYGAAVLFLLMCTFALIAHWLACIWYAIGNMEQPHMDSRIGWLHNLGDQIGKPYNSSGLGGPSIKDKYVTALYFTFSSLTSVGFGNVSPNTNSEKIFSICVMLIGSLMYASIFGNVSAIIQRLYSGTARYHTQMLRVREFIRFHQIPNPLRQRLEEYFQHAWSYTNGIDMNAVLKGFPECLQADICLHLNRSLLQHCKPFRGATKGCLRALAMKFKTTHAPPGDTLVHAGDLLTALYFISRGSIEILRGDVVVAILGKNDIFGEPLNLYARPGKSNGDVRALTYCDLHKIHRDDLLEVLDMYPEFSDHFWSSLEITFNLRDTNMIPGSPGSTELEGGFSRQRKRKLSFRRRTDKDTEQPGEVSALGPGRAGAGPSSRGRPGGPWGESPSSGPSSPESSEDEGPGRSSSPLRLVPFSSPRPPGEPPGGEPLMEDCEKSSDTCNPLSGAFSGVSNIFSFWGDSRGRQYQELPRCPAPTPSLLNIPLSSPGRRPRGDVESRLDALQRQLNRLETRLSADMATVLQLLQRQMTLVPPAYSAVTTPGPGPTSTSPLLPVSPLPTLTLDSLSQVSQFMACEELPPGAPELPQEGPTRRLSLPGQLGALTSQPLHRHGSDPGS

As for `Fc1ccc(-c2cnc3[nH]cc(-c4ccnc(NC5CC5)n4)c3c2)cc1` [MJ04], the “mortality or clinical signs of toxicity” value in data set [1] (single dose 0.04 mg/kg) is given as “no mortality or clinical signs of toxicity”. Further, in data set [1] (single dose 0.08 mg/kg, 14 days, 0.08 mg/kg), the “skin irritation/corrosion, mortality or clinical signs of toxicity” value is on record as “no skin irritation/corrosion, mortality or clinical signs of toxicity”. Also, the “Fold of selectivity vs. JAK3” value in data set [2] (IGF-1R) amounted to 476; in data set [3] (GSK-3-β), 908. Also, the IC50 in data set [2] (Km ATP) is 967 nM; in data set [3] (Km ATP), 1840 nM; in data set [7], 4470 nM; in data set [8], 3790 nM. Further, in [4] (2000 mg/kg body weight, single dermal dose, 14 days), the “mortality and clinical signs of toxicity” value is “no mortality and clinical signs of toxicity”. The compound further showed an LD50 at 14 days in data set [4] (Wistar, rat, in vivo, topical or ocular) greater than 2000 mg/kg. Besides, the “differentiation of naïve T cells into Th1 subsets” value in data set [5] is listed as “inhibits the differentiation of naïve T cells”. In data set [6], the “length of hair shafts” value is given as “significantly increased the length of hair shafts”. Besides, the “reduction of hERG outward tail current” value in data set [9] (10 μM) turned out to be 7.1 ± 2%. Besides, the “inhibitory effect on hERG, fold less than that of Tofacitinib” value in [9] (highest concentration tested (30 μM)) is ~ 2.5 fold.

For `CCS(=O)(=O)N1CC(CC#N)(n2cc(-c3ncnc4[nH]ccc34)cn2)C1` [Baricitinib, baricitinib, reference compound], the “Weight of nude mice (NU/J Foxn1nu)” value in [10] (0.02 mg/kg, DAY 1) was 17.9 and 18.3 and 18.5 and 18.7 and 19.2; in data set [10] (0.02 mg/kg, DAY 7), 19.4 and 19.8 and 20.2 and 20.4 and 20.7; in [10] (0.02 mg/kg, DAY 14), 21.2 and 21.3 and 21.7 and 22.1 and 22.5; in data set [10] (0.02 mg/kg, DAY 21), 22.6 and 22.8 and 23.2 and 24.2 and 24.4; in data set [10] (0.02 mg/kg, DAY 28) it was 24.3 and 24.8 and 24.9 and 25.8 and 26.2; in data set [10] (0.04 mg/kg, DAY 1) it was 17.9 and 18.5 and 18.6 and 18.7 and 19.1. The “Weight of nude mice (NU/J Foxn1nu)” value was 19.2 and 19.8 and 20.1 (2×) and 20.5 in data set [10] (0.04 mg/kg, DAY 7); 20.8 and 20.9 and 21.4 and 21.5 and 21.8 in [10] (0.04 mg/kg, DAY 14); 22.4 and 22.6 and 23.1 and 23.3 and 23.5 in [10] (0.04 mg/kg, DAY 21); 24.6 and 24.8 and 25.3 and 25.4 and 25.7 in data set [10] (0.04 mg/kg, DAY 28); 18.5 and 18.6 and 18.7 and 19.3 and 18.8 in [10] (0.1 mg/kg, DAY 1); 19.7 and 19.8 and 21.1 and 20.1 and 20.4 in data set [10] (0.1 mg/kg, DAY 7). Further, the “Weight of nude mice (NU/J Foxn1nu)” value was 21.3 and 22.9 and 21.8 and 22.1 in data set [10] (0.1 mg/kg, DAY 14); 22.6 and 23.2 and 24.3 and 23.6 and 23.8 in data set [10] (0.1 mg/kg, DAY 21); 25.3 and 24.8 and 25.7 and 25.8 and 25.4 in data set [10] (0.1 mg/kg, DAY 28).

Source of the values: paper PMC11025159 (Journal of Translational Medicine, 2024).
